In patent US11667602B2, “Compounds and their use” (AstraZeneca AB, priority 2020, dated 2023):
Values after ≈ are worked out from the molar mass of the structure shown. Like-named read-outs stand apart in the source and are kept apart here.

Columns and labels:
[1] = Human Plasma Protein Binding (Test B); assay type: in vitro ADME; conditions: fraction unbound (fu)
How it was run: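 Human plasma protein binding run per the published Wernevik et al. (2020) integrated DMPK panel protocol. Values are fraction unbound (fu, % free); repeat runs averaged arithmetically.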

[2] = Human Liver Microsomal Stability (Test C); assay type: in vitro ADME
How it was run: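 Human liver microsome incubation per the Wernevik et al. integrated DMPK panel protocol. Intrinsic clearance reported as CLint in μl/min/mg protein, averaged arithmetically over repeat runs.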

[3] = Rat Hepatocyte Stability (Test E); assay type: in vitro ADME; conditions: geometric mean if run multiple times
How it was run: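 Run per the published AstraZeneca-type rat hepatocyte stability protocol (Wernevik et al. panel). Values are mean intrinsic clearance, Clint in μl/min/10^6 cells; geometric mean used for repeated runs.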

Solubility (Test F) = assay type: physicochemical; conditions: arithmetic mean if run multiple times
Method: The assay was conducted according to the Solubility Assay described in pages 164-167 of Wernevik, J. et al., “A Fully Integrated Assay Panel for Early Drug Metabolism and Pharmacokinetics Profiling”, Assay and Drug Development Technologies, 2020, 18(4), 157-179. Data are reported in Table 36 as solubility ([…]. Where the assay was run multiple times for the same compound, the arithmetic mean is reported.

human RXFP1 = target: T1, human RXFP1 (Homo sapiens, UniProt Q9HBX9); test: RXFP1 Hu cAMP (Test A); assay type: cell-based; design: expressed in transfected cells; host or cells: Jump-In T-REx CHO-K1 cells (ThermoFisher), induced with 10 ng/ml doxycycline for 24 h
T1 sequence (Q9HBX9 1-757): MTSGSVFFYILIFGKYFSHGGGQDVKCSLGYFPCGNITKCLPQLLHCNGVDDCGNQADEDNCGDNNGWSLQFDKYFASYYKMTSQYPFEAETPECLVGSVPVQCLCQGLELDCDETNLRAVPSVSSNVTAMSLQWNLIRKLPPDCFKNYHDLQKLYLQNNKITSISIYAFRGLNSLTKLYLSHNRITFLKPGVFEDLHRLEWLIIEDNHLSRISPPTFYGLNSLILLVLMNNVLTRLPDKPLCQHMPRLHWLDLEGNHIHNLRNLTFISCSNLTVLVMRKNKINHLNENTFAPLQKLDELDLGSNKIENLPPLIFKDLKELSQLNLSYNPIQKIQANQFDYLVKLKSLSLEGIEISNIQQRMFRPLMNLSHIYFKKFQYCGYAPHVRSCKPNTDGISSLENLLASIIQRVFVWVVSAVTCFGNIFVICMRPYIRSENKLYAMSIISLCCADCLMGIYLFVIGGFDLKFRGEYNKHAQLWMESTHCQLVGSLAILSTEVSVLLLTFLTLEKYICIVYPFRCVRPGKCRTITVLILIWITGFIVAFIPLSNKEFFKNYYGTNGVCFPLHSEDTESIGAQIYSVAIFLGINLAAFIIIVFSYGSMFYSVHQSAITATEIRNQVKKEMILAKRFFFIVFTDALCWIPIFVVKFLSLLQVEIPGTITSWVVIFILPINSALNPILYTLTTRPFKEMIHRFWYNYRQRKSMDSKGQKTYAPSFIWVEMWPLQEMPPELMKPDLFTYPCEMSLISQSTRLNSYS
How it was run: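 Competitive HTRF cAMP readout (2 h, room temperature) in CHO-K1 cells stably expressing human RXFP1, induced with 10 ng/ml doxycycline for 24 h; IBMX 0.5 mM final.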

[4] = RXFP1 Hu cAMP, read-out: Test A EC50

SMILES	Test B Human Plasma Protein Binding (% free) [1]	microsomal CLint ([2]; human, liver microsomes)	hepatocyte CLint ([3]; rat, hepatocytes)	solubility (Solubility (Test F))	EC50 (human RXFP1; [4])	Test A Sinf (human RXFP1; RXFP1 Hu cAMP)	microsomal CLint ([2]; human liver microsomes)	hepatocyte CLint ([3]; rat hepatocytes)	EC50 (human RXFP1; Test A EC50, RXFP1 Hu cAMP)
COc1cc(F)c(O[C@H]2CC[C@@H](C(=O)O)CC2)cc1C(=O)N[C@H]1[C@@H](C(=O)Nc2ccc(F)c(C(F)(F)F)c2)[C@H]2CC[C@@H]1O2 [Example 49, (1R,4s)-4-(2-Fluoro-5-(((1S,2S,3R,4R)-3-((4-fluoro-3-(trifluoromethyl)phenyl)carbamoyl)-7-oxabicyclo[2.2.1]heptan-2-yl)carbamoyl)-4-methoxyphenoxy)cyclohexane-1-carboxylic acid]	3.2 % free	< 3 µL/min/mg	< 1 µL/min/1e6 cells	24 µM (≈ 14.7 µg/mL)	> 50000 nM	–	–	–	–
COc1cc(F)c(-c2ccc(OCC(=O)O)cc2)cc1C(=O)N[C@@H]1[C@H]2CC[C@H](C2)[C@@H]1C(=O)Nc1cccc(S(=O)(=O)C(F)(F)F)c1 [Example 257, 2-((2′-Fluoro-4′-methoxy-5′-(((1S,2R,3S,4R)-3-((3-((trifluoromethyl)sulfonyl)phenyl)carbamoyl)bicyclo[2.2.1]heptan-2-yl)carbamoyl)-[1,1′-biphenyl]-4-yl)oxy)acetic acid]	0.35 % free	16 µL/min/mg	9.5 µL/min/1e6 cells	> 1000 µM	59 nM	96%	–	–	–
COc1cc(F)c(O[C@H]2CC[C@@](F)(C(=O)O)CC2)cc1C(=O)N[C@@H]1[C@H]2CC[C@H](C2)[C@@H]1C(=O)Nc1cccc(S(=O)(=O)C(F)(F)F)c1 [Example 416]	1.2 % free	9.9 µL/min/mg	10 µL/min/1e6 cells	> 1000 µM	320 nM	103%	–	–	–
COc1cc(C#N)c(O[C@H]2CC[C@@](C)(C(=O)O)CC2)cc1C(=O)N[C@@H]1[C@H]2CC[C@H](C2)[C@@H]1C(=O)NCC1(OC)CC1 [Example 111]	31 % free	< 3 µL/min/mg	18 µL/min/1e6 cells	860 µM (≈ 476 µg/mL)	680 nM	100%	–	–	–
COc1cc(F)c(O[C@H]2CC[C@@H](C(=O)O)CC2)cc1C(=O)N[C@@H]1[C@H]2CC[C@H](C2)[C@@H]1C(=O)Nc1nccc(C(F)(F)F)n1 [Example 32]	13 % free	10 µL/min/mg	26 µL/min/1e6 cells	> 1000 µM	> 40000 nM	100%	–	–	–
COc1cc(F)c(O[C@H]2CC[C@@](C)(C(=O)O)CC2)cc1C(=O)N[C@@H]1[C@H]2CC[C@H](C2)[C@@H]1C(=O)NCC1(C)CC1 [Example 41]	8 % free	8.9 µL/min/mg	21 µL/min/1e6 cells	820 µM (≈ 435 µg/mL)	> 5500 nM	114%	–	–	–
COc1cc(F)c(-c2cccc(CCC(=O)O)c2)cc1C(=O)N[C@@H]1CCC[C@@H]1C(=O)Nc1cccc(S(=O)(=O)C(F)(F)F)c1 [Example 319]	0.44 % free	18 µL/min/mg	29 µL/min/1e6 cells	380 µM (≈ 242 µg/mL)	750 nM	79%	–	–	–
COc1cc(C#N)c(O[C@H]2CC[C@@](C)(C(=O)O)CC2)cc1C(=O)N[C@@H]1[C@H]2CC[C@H](C2)[C@@H]1C(=O)NCC1(CF)CC1 [Example 95]	18 % free	4.4 µL/min/mg	21 µL/min/1e6 cells	880 µM (≈ 489 µg/mL)	480 nM	123%	–	–	–
COc1cc(F)c(O[C@H]2CC[C@@H](C(=O)O)CC2)cc1C(=O)N[C@@H]1[C@H]2CC[C@H](C2)[C@@H]1C(=O)Nc1ccc(C#N)c(C(F)(F)F)c1 [Example 28]	0.94 % free	–	–	690 µM (≈ 426 µg/mL)	–	96%	32 µL/min/mg	51 µL/min/1e6 cells	44 nM
COc1cc(C#N)c(O[C@H]2CC[C@@](C)(C(=O)O)CC2)cc1C(=O)N[C@@H]1[C@H]2CC[C@H](C2)[C@@H]1C(=O)NCC1(CO)CCC1 [Example 75]	25 % free	< 3 µL/min/mg	14 µL/min/1e6 cells	880 µM (≈ 500 µg/mL)	–	110%	–	–	–
COc1cc(F)c(-c2ccc(OCC(=O)O)nc2)cc1C(=O)N[C@@H]1[C@H]2CC[C@H](C2)[C@@H]1C(=O)Nc1cccc(S(=O)(=O)C(F)(F)F)c1 [Example 241]	0.69 % free	12 µL/min/mg	12 µL/min/1e6 cells	550 µM (≈ 366 µg/mL)	140 nM	99%	–	–	–
COc1cc(F)c(O[C@H]2CC[C@@H](C(=O)O)CC2)cc1C(=O)N[C@@H]1[C@H]2CC[C@H](C2)[C@@H]1C(=O)Nc1cccc(C2CC2)c1 [Example 190]	1.6 % free	23 µL/min/mg	120 µL/min/1e6 cells	420 µM (≈ 237 µg/mL)	680 nM	110%	–	–	–
COc1cc(F)c(O[C@H]2CC[C@@H](C(=O)O)CC2)cc1C(=O)N[C@@H]1[C@H]2CC[C@H](C2)[C@@H]1C(=O)Nc1cc(C)cc(C(F)(F)F)c1 [Example 188]	0.64 % free	36 µL/min/mg	38 µL/min/1e6 cells	290 µM (≈ 176 µg/mL)	270 nM	103%	–	–	–
